According to patent US20060063784A1, “Method of using substituted pyrazolo [1,5-a] pyrimidines” (priority 2004, published 2006):
Read-outs that look alike come from different tables or passages of the source.

Tested on: 80S14 (p21-deficient) cells
Assay: Cytotoxicity assay using isogenic cell lines: IC50 in 80S14 (p21-deficient) cells, SRB
Format: cell-based, human
Procedure, shortened: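 IC50 is the concentration halving proliferation relative to untreated controls, read from SRB absorbance (560 nm) after TCA fixation. Test agent dilutions (5 pM–50 μM or 170 pg/ml–10 μg/ml) were left on p21-deficient 80S14 cells (12,000/well, pre-incubated overnight) for 5 days at 37 °C.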

[1] = Homo sapiens, 120 h, 80S14 (p21-deficient) cells, 5 days, SRB, class symbols, read-out: IC50 for 80S14
[2] = 80S14 p21-deficient cells, 5 days incubation, SRB, read-out: IC50 for 80SI4
[3] = Homo sapiens, 120 h, 80S14 p21-deficient cells, 5 days incubation, SRB, read-out: IC50 for 80SI4

Row | Compound | IC50 [1] | IC50 [3] | other results
1 | Cc1cc(C)cc(-c2cnn3c(-c4cccc(-c5nnn(CCN6CCCC6)n5)c4)ccnc23)c1 [Example 498, 3-(3,5-Dimethylphenyl)-7-{3-[2-(2-pyrrolidin-1-ylethyl)-2H-tetrazol-5-yl]phenyl}pyrazolo[1,5-a]pyrimidine] | 1 to 10 µM |  | 
2 | O=C(c1ccccn1)c1cnn2c(-c3cccc(NC(=O)C4CC4)c3)ccnc12 [Example 337, N-{3-[3-(Pyridin-2-ylcarbonyl)pyrazolo[1,5-a]pyrimidin-7-yl]phenyl}cyclopropanecarboxamide] | 10 to 50 µM |  | 
3 | O=C(CNC(=O)NC1CCCCC1)Nc1cccc(-c2ccnc3c(C(=O)c4cccs4)cnn23)c1 [Example 138, N-2-[(cyclohexylamino)carbonyl]-N1-{3-[3-(thien-2-ylcarbonyl)pyrazolo[1,5-a]pyrimidin-7-yl]phenyl}glycinamide] |  |  | IC50 [2]: 1 to 10 µM
4 | CCC(CC)CNc1cccc(-c2ccnc3c(C(=O)c4cccs4)cnn23)c1 [Example 403, (7-{3-[(2-Ethylbutyl)amino]phenyl}pyrazolo[1,5-a]pyrimidin-3-yl)(thien-2-yl)methanone] | 1 to 10 µM |  | 
5 | COc1ccc(C(=O)Nc2cccc(-c3ccnc4c(C(=O)c5cccs5)cnn34)c2)cc1 [Example 88, 4-methoxy-N-{3-[3-(thien-2-ylcarbonyl)pyrazolo[1,5-a]pyrimidin-7-yl]phenyl]benzamide] |  | < 1 µM | 
6 | COCC(=O)Nc1cccc(-c2ccnc3c(C(=O)c4cccs4)cnn23)c1 [Example 61, 2-methoxy-N-{3-[3-(thien-2-ylcarbonyl)pyrazolo[1,5-a]pyrimidin-7-yl]phenyl]acetamide] |  | 1 to 10 µM | 
7 | Cc1cnc2c(C(=O)c3cccs3)cnn2c1-c1cccc(NC(=O)c2ccccc2)c1 [Example 216, N-{3-[6-methyl-3-(thien-2-ylcarbonyl)pyrazolo[1,5-a]pyrimidin-7-yl]phenyl}benzamide] |  | 10 to 50 µM | 
8 | CCCC(OC(=O)Nc1cccc(-c2ccnc3c(C(=O)c4cccs4)cnn23)c1)C(C)C (centres unmarked) [Example 192, 1-isopropylbutyl 3-[3-(thien-2-ylcarbonyl)pyrazolo[1,5-a]pyrimidin-7-yl]phenylcarbamate] |  | 1 to 10 µM | 
9 | O=C(NC1CCCC1)c1cccc(-c2ccnc3c(C(=O)c4cccs4)cnn23)c1 [Example 320, N-Cyclopentyl-3-[3-(2-thienylcarbonyl)pyrazolo[1,5-a]pyrimidin-7-yl]benzamide] | < 1 µM |  | 
10 | CC(CC(=O)Nc1cccc(-c2ccnc3c(C(=O)c4cccs4)cnn23)c1)C(F)(F)F (centres unmarked) [Example 59, 4,4,4-trifluoro-3-methyl-N-{3-[3-(thien-2-ylcarbonyl)pyrazolo[1,5-a]pyrimidin-7-yl]phenyl}butanamide] |  | < 1 µM | 
11 | C=C(C)OC(=O)Nc1cccc(-c2ccnc3c(C(=O)c4cccs4)cnn23)c1 [Example 21] |  |  | IC50 [2]: < 1 µM
12 | O=C(CNC(=O)c1ccccc1)Nc1cccc(-c2ccnc3c(C(=O)c4cccs4)cnn23)c1 [Example 135, N-[2-oxo-2-({3-[3-(thien-2-ylcarbonyl)pyrazolo[1,5-a]pyrimidin-7-yl]phenyl]amino)ethyl]benzamide] |  | 1 to 10 µM | 
13 | 1-Methyl-N-{3-[3-(thien-2-ylcarbonyl)pyrazolo[1,5-a]pyrimidin-7-yl]phenyl}piperidine-4-carboxaamide [Example 417] |  |  | IC50 (80S14 (p21-deficient) cells, 5 days, SRB, class symbols, read-out: IC50 for 80S14): 10 to 50 µM
14 | CC(C)CC(=O)Nc1cccc(-c2ccnc3c(-c4cccs4)cnn23)c1 [Example 333, 3-Methyl-N-[3-(3-thien-2-ylpyrazolo[1,5-a]pyrimidin-7-yl)phenyl]butanamide] | 10 to 50 µM |  | 
15 | CC(C)COC(=O)NCC(=O)Nc1cccc(-c2ccnc3c(C(=O)c4cccs4)cnn23)c1 [Example 117, isobutyl 2-oxo-2-({3-[3-(thien-2-ylcarbonyl)pyrazolo[1,5-a]pyrimidin-7-yl]phenyl}amino)ethylcarbamate] |  | 1 to 10 µM | 
16 | CCN(C(=O)C1CC1)c1cccc(-c2ccnc3c(C#N)cnn23)c1 [Example 256, N-[3-(3-Cyanopyrazolo[1,5-a]pyrimidin-7-yl)phenyl]-N-ethyl-cyclopropanecarboxamide] | 10 to 50 µM |  | 
17 | O=C(CNC(=O)C1CCCCC1)Nc1cccc(-c2ccnc3c(C(=O)c4cccs4)cnn23)c1 [Example 129, N-[2-oxo-2-({3-[3-(thien-2-ylcarbonyl)pyrazolo[1,5-a]pyrimidin-7-yl]phenyl}amino)ethyl]cyclohexanecarboxamide] |  | 10 to 50 µM | 
18 | COc1ccc(S(=O)(=O)Nc2cccc(-c3ccnc4c(C(=O)c5cccs5)cnn34)c2)cc1 [Example 36, 4-methoxy-N-{3-[3-(thien-2-ylcarbonyl)pyrazolo[1,5-a]pyrimidin-7-yl]phenyl}benzenesulfonamide] |  | 1 to 10 µM | 
19 | CCC(CC)C(=O)NCC(=O)Nc1cccc(-c2ccnc3c(C(=O)c4cccs4)cnn23)c1 [Example 131, 2-ethyl-N-[2-oxo-2-({3-[3-(thien-2-ylcarbonyl)pyrazolo[1,5-a]pyrimidin-7-yl]phenyl}amino)ethyl]butanamide] |  | 10 to 50 µM | 

Row | Compound | IC50 [1] | IC50 [3] | other results
20 | CCCC(C)CNc1cccc(-c2ccnc3c(C(=O)c4cccs4)cnn23)c1 (centres unmarked) [Example 418, (7-{3-[(2-Methylpentyl)amino]phenyl}pyrazolo[1,5-a]pyrimidin-3-yl)(thien-2-yl)methanone] | 1 to 10 µM |  | 
21 | Cc1cnc2c(C(=O)c3cccs3)cnn2c1-c1cccc(NC(=O)c2cccnc2)c1 [Example 220, N-{3-[6-methyl-3-(thien-2-ylcarbonyl)pyrazolo[1,5-a]pyrimidin-7-yl]phenyl}nicotinamide] |  | 10 to 50 µM | 
22 | CN1CCN(Cc2ccc(-c3cccc(-c4ccnc5c(C(=O)c6cccs6)cnn45)c3)cc2)CC1 [Example 460, (7-{4′-[(4-Methylpiperazin-1-yl)methyl]-1,1′-biphenyl-3-yl}pyrazolo[1,5-a]pyrimidin-3-yl)(thien-2-yl)methanone] | < 1 µM |  | 
23 | CN1CCN(C(=O)Nc2cccc(-c3ccnc4c(C(=O)c5cccs5)cnn34)c2)CC1 [Example 166, 4-methyl-N-{3-[3-(thien-2-ylcarbonyl)pyrazolo[1,5-a]pyrimidin-7-yl]phenyl}piperazine-1-carboxamide] |  | 1 to 10 µM | 
24 | CCC(=O)Nc1cccc(-c2ccnc3c(C(=O)c4cccs4)cnn23)c1 [Example 251, N-[3-[3-(2-Thienylcarbonyl)pyrazolo[1,5-a]pyrimidin-7-yl]phenyl}-propanamide] |  |  | IC50 (Homo sapiens, 80S14, 120 h, read-out: IC50 for 80S14 (uM)): < 1 µM
25 | CCC(CC)C(=O)Nc1cccc(-c2ccnc3c(C(=O)c4cccs4)cnn23)c1 [Example 150, 2-ethyl-N-{3-[3-(thien-2-ylcarbonyl)pyrazolo[1,5-a]pyrimidin-7-yl]phenyl}butanamide] |  |  | IC50 (Homo sapiens, 80S14, 120 h, read-out: IC50 for 80SI4 (uM)): 1 to 10 µM
26 | CC(C)COC(=O)Nc1cccc(-c2ccnc3c(Br)cnn23)c1 [Example 327, Isobutyl 3-(3-bromopyrazolo[1,5-a]pyrimidin-7-yl)phenylcarbamate] | 10 to 50 µM |  | 
27 | CCNC(=O)Nc1cccc(-c2ccnc3c(C(=O)c4cccs4)cnn23)c1 [Example 5, N-ethyl-N′-{3-[3-(thien-2-ylcarbonyl)pyrazolo[1,5-a]pyrimidin-7-yl]phenyl}urea] |  | < 1 µM | 
28 | O=C(Cc1ccc(Cl)cc1)Nc1cccc(-c2ccnc3c(C(=O)c4cccs4)cnn23)c1 [Example 108, 2-(4-chlorophenyl)-N-{3-[3-(thien-2-ylcarbonyl)pyrazolo[1,5-a]pyrimidin-7-yl]phenyl}acetamide] |  | < 1 µM | 
29 | CC(CCl)(CCl)C(=O)Nc1cccc(-c2ccnc3c(C(=O)c4cccs4)cnn23)c1 [Example 141, 3-chloro-2-(chloromethyl)-2-methyl-N-{3-[3-(thien-2-ylcarbonyl)pyrazolo[1,5-a]pyrimidin7-yl]phenyl}propanamide] |  | < 1 µM | 
30 | CCCCNC(=O)c1cccc(-c2ccnc3c(C(=O)c4cccs4)cnn23)c1 [Example 319, N-Butyl-3-[3-(2-thienylcarbonyl)pyrazolo[1,5-a]pyrimidin-7-yl]benzamide] | < 1 µM |  | 
31 | O=C(Nc1cccc(-c2ccnc3c(C(=O)c4cccs4)cnn23)c1)OCCc1ccsc1 [Example 179, 2-thien-3-ylethyl 3-[3-(thien-2-ylcarbonyl)pyrazolo[1,5-a]pyrimidin-7-yl]phenylcarbamate] |  | 1 to 10 µM | 
32 | O=C(c1cccs1)c1cnn2c(-c3cccc(NC(=O)[C@@H]4CCCN4C(=O)C(F)(F)F)c3)ccnc12 [Example 52] |  |  | IC50 [2]: 1 to 10 µM
33 | O=C(COc1ccccc1)Nc1cccc(-c2ccnc3c(C(=O)c4cccs4)cnn23)c1 [Example 111, 2-phenoxy-N-{3-[3-(thien-2-ylcarbonyl)pyrazolo[1,5-a]pyrimidin-7-yl]phenyl}acetamide] |  | 1 to 10 µM | 
34 | COC(=O)CCC(=O)Nc1cccc(-c2ccnc3c(C(=O)c4cccs4)cnn23)c1 [Example 42, methyl 4-oxo-4-({3-[3-(thien-2-ylcarbonyl)pyrazolo[1,5-a]pyrimidin-7-yl]phenyl}amino)butanoate] |  | 10 to 50 µM | 
35 | CC(C)CNC(=O)c1cccc(-c2ccnc3c(C(=O)c4cccs4)cnn23)c1 [Example 318, N-Isobutyl-3-[3-(2-thienylcarbonyl)pyrazolo[1,5-a]pyrimidin-7-yl]benzamide] | < 1 µM |  | 
36 | CCN(C(=O)C1CC1)c1cccc(-c2ccnc3c(C(=O)c4ccccc4)cnn23)c1 [Example 253, N-[3-(3-Benzoylpyrazolo[1,5-a]pyrimidin-7-yl)phenyl]-N-ethyl-cyclopropanecarboxamide] | 10 to 50 µM |  | 
37 | C#CCOC(=O)NCC(=O)Nc1cccc(-c2ccnc3c(C(=O)c4cccs4)cnn23)c1 [Example 123, prop-2-ynyl 2-oxo-2-({3-[3-(thien-2-ylcarbonyl)pyrazolo[1,5-a]pyrimidin-7-yl]phenyl}amino)ethylcarbamate] |  | 1 to 10 µM | 
38 | CN(C)CC(=O)Nc1cccc(-c2ccnc3c(C(=O)c4cccs4)cnn23)c1 [Example 64, N-2-N-2-dimethyl-N-1-{3-[3-(thien-2-ylcarbonyl)pyrazolo[1,5-a]pyrimidin-7-yl]phenyl}glycinamide] |  |  | IC50 [2]: 1 to 10 µM
